Assay results taken from ChEMBL document CHEMBL1201862, “PubChem BioAssay data set” (2004).
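Briefly, cells in 96-well plates were exposed to five compound concentrations for 48 h, and endpoints were estimated by linear interpolation. Abbreviation: GI50, concentration required for 50% inhibition of growth.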 Active and inactive are the calls of the source. Cut-off read from the data, not from the text of the source: active = GI50 up to about 1.1 µM and inactive = higher.

What was measured:
Assay in all cases: NCI-60 cell line screen, 48 h
CCRF-CEM = system: CCRF-CEM
K562 = system: K562
NCI/ADR-RES = system: NCI/ADR-RES
SNB-19 = system: SNB-19
TK-10 = system: TK-10
SK-OV-3 = system: SK-OV-3
786-0 = system: 786-0
SF-539 = system: SF-539
SK-MEL-5 = system: SK-MEL-5
SK-MEL-2 = system: SK-MEL-2
HT-29 = system: HT-29
HL-60 = system: HL-60
SF-268 = system: SF-268
OVCAR-3 = system: OVCAR-3
RXF 393 = system: RXF 393
CAKI-1 = system: CAKI-1
M14 = system: M14
MOLT-4 = system: MOLT-4
UACC-257 = system: UACC-257
HOP-62 = system: HOP-62

| Compound | GI50 (CCRF-CEM) | GI50 (K562) | GI50 (NCI/ADR-RES) | GI50 (SNB-19) | GI50 (TK-10) | GI50 (SK-OV-3) | GI50 (786-0) | GI50 (SF-539) | GI50 (SK-MEL-5) | GI50 (SK-MEL-2) | GI50 (HT-29) | GI50 (HL-60) | GI50 (SF-268) | GI50 (OVCAR-3) | GI50 (RXF 393) | GI50 (CAKI-1) | GI50 (M14) | GI50 (MOLT-4) | GI50 (UACC-257) | GI50 (HOP-62) |
| --- | --- | --- | --- | --- | --- | --- | --- | --- | --- | --- | --- | --- | --- | --- | --- | --- | --- | --- | --- | --- |
| Nc1ccn(C2CCC(CO)O2)c(=S)n1 (stereo unspecified) | > 100 µM (inactive) | > 100 µM (inactive) | > 100 µM (inactive) | > 100 µM (inactive) | > 100 µM (inactive) | > 100 µM (inactive) | > 100 µM (inactive) | > 100 µM (inactive) | > 100 µM (inactive) | > 100 µM (inactive) | > 100 µM (inactive) | > 100 µM (inactive) | > 100 µM (inactive) | > 100 µM (inactive) | > 100 µM (inactive) | > 100 µM (inactive) | > 100 µM (inactive) | > 100 µM (inactive) | > 100 µM (inactive) | > 100 µM (inactive) |
| N[C@@H](Cc1ccccc1)C(=O)N1CCC[C@@H]1P(=O)(Oc1ccccc1)Oc1ccccc1 | > 100 µM (inactive) | 77.8 µM (inactive) | > 100 µM (inactive) | > 100 µM (inactive) | > 100 µM (inactive) | > 100 µM (inactive) | > 100 µM (inactive) | > 100 µM (inactive) | 78.2 µM (inactive) | > 100 µM (inactive) | 86.3 µM (inactive) | > 100 µM (inactive) | > 100 µM (inactive) | > 100 µM (inactive) | > 100 µM (inactive) | > 100 µM (inactive) | > 100 µM (inactive) | 60.3 µM (inactive) | > 100 µM (inactive) | > 100 µM (inactive) |
| N[C@H]1CCCC[C@@H]1N1C(=O)c2ccccc2C1(O)c1ccc(Cl)cc1 (stereo partly specified) | 2.94 µM (inactive) | 3.19 µM (inactive) | 12.7 µM (inactive) | 14 µM (inactive) | 12.9 µM (inactive) | 15.7 µM (inactive) | 12.6 µM (inactive) | 10.4 µM (inactive) | 10.5 µM (inactive) | 15 µM (inactive) | 4.75 µM (inactive) | 2.41 µM (inactive) | 12.4 µM (inactive) | 8.73 µM (inactive) | 6.07 µM (inactive) | 4.4 µM (inactive) | 9.44 µM (inactive) | 5.79 µM (inactive) | 4.15 µM (inactive) | 14.5 µM (inactive) |
| CCN(CC)CC1CCCCN1CC(=O)N1c2ccccc2C(=O)Nc2cccnc21 (stereo unspecified) [OTENZEPAD] | 19 µM (inactive) | – | 20.8 µM (inactive) | > 100 µM (inactive) | > 100 µM (inactive) | > 100 µM (inactive) | 35.4 µM (inactive) | 40.6 µM (inactive) | > 100 µM (inactive) | > 100 µM (inactive) | 21.8 µM (inactive) | 17.4 µM (inactive) | 59.2 µM (inactive) | > 100 µM (inactive) | > 100 µM (inactive) | > 100 µM (inactive) | 68.9 µM (inactive) | 21 µM (inactive) | 38.1 µM (inactive) | 34.7 µM (inactive) |
| Cn1c(N)c(Cc2ccc(Cl)cc2)c(=O)[nH]c1=O | > 100 µM (inactive) | > 100 µM (inactive) | > 100 µM (inactive) | > 100 µM (inactive) | > 100 µM (inactive) | > 100 µM (inactive) | > 100 µM (inactive) | > 100 µM (inactive) | > 100 µM (inactive) | > 100 µM (inactive) | > 100 µM (inactive) | > 100 µM (inactive) | > 100 µM (inactive) | > 100 µM (inactive) | > 100 µM (inactive) | > 100 µM (inactive) | > 100 µM (inactive) | > 100 µM (inactive) | > 100 µM (inactive) | > 100 µM (inactive) |
| CCOP(=O)(OCC)C(Nc1ccc(Br)cc1)c1cccc([N+](=O)[O-])c1 (stereo unspecified) | 17.8 µM (inactive) | 12 µM (inactive) | 13.5 µM (inactive) | 24.9 µM (inactive) | 30.5 µM (inactive) | 14.6 µM (inactive) | 20.4 µM (inactive) | 19.6 µM (inactive) | 14.6 µM (inactive) | 16.7 µM (inactive) | 16.8 µM (inactive) | 20 µM (inactive) | 17.7 µM (inactive) | 16.2 µM (inactive) | 14.4 µM (inactive) | 22.1 µM (inactive) | 17.1 µM (inactive) | 17 µM (inactive) | > 10 µM (inactive) | 17.5 µM (inactive) |
| Nc1nc(O)c(N)c(NCCOCP(=O)(O)O)n1 | > 100 µM (inactive) | > 100 µM (inactive) | > 100 µM (inactive) | > 100 µM (inactive) | > 100 µM (inactive) | > 100 µM (inactive) | > 100 µM (inactive) | > 100 µM (inactive) | > 100 µM (inactive) | > 100 µM (inactive) | > 100 µM (inactive) | > 84.1 µM (inactive) | > 100 µM (inactive) | > 100 µM (inactive) | > 100 µM (inactive) | > 100 µM (inactive) | > 100 µM (inactive) | > 100 µM (inactive) | > 100 µM (inactive) | > 100 µM (inactive) |
| C=CCC1(OCc2ccccc2)C(=O)C(=O)OC1C1COC(C)(C)O1 (stereo unspecified) | > 100 µM (inactive) | > 100 µM (inactive) | > 100 µM (inactive) | > 100 µM (inactive) | > 100 µM (inactive) | > 100 µM (inactive) | > 100 µM (inactive) | > 100 µM (inactive) | > 100 µM (inactive) | > 100 µM (inactive) | > 100 µM (inactive) | > 100 µM (inactive) | > 100 µM (inactive) | > 100 µM (inactive) | > 100 µM (inactive) | > 100 µM (inactive) | > 100 µM (inactive) | > 100 µM (inactive) | > 100 µM (inactive) | > 100 µM (inactive) |
| CCCCCC1=C/C(=C\c2[nH]c(-c3ccc[nH]3)cc2OC)N=C1C | < 0.01 µM (active) | < 0.01 µM (active) | < 0.01 µM (active) | 0.0562 µM (active) | 0.0329 µM (active) | 0.25 µM (active) | < 0.01 µM (active) | 0.0127 µM (active) | 0.0316 µM (active) | < 0.01 µM (active) | < 0.01 µM (active) | < 0.01 µM (active) | < 0.01 µM (active) | < 0.01 µM (active) | 0.0115 µM (active) | < 0.01 µM (active) | < 0.01 µM (active) | < 0.01 µM (active) | 0.0684 µM (active) | 0.0111 µM (active) |
| Cc1cc(C)nc(SC(C)C(=O)N/N=C/c2ccc(OCc3ccccc3)cc2)n1 (stereo unspecified) | 19.1 µM (inactive) | 6.11 µM (inactive) | 21.8 µM (inactive) | 48.5 µM (inactive) | 27.2 µM (inactive) | 41.5 µM (inactive) | 36.6 µM (inactive) | 50.8 µM (inactive) | 7.03 µM (inactive) | 21.6 µM (inactive) | 14.5 µM (inactive) | 14.5 µM (inactive) | 40.6 µM (inactive) | 19.7 µM (inactive) | 19.1 µM (inactive) | 20.5 µM (inactive) | 36.8 µM (inactive) | 17.1 µM (inactive) | 7.41 µM (inactive) | 36 µM (inactive) |
| CNc1ncc(-c2nnnn2-c2ccccc2)c(CN(C)C)n1 | > 100 µM (inactive) | > 100 µM (inactive) | > 100 µM (inactive) | > 100 µM (inactive) | > 100 µM (inactive) | > 100 µM (inactive) | > 100 µM (inactive) | > 100 µM (inactive) | > 100 µM (inactive) | > 100 µM (inactive) | > 100 µM (inactive) | > 100 µM (inactive) | > 100 µM (inactive) | > 100 µM (inactive) | > 100 µM (inactive) | > 100 µM (inactive) | > 100 µM (inactive) | > 100 µM (inactive) | > 100 µM (inactive) | > 100 µM (inactive) |
| COc1cccc2c3cccc(OC)c3c3[nH]cnc3c12 | 0.923 µM (active) | 2.08 µM (inactive) | 3.09 µM (inactive) | 5.01 µM (inactive) | 1.65 µM (inactive) | 18.7 µM (inactive) | 1.58 µM (inactive) | 1.32 µM (inactive) | – | 20.1 µM (inactive) | 1.64 µM (inactive) | 0.785 µM (active) | 4.54 µM (inactive) | 13.9 µM (inactive) | 1.78 µM (inactive) | 16.9 µM (inactive) | 1.71 µM (inactive) | 2.29 µM (inactive) | 17.7 µM (inactive) | 16.4 µM (inactive) |
| C[C@H]1C(=O)C2=C[C@H]1CCC(=O)[C@]1(C)CCCC(C)(C)[C@H]1C[C@H]2O | 15.8 µM (inactive) | 12.4 µM (inactive) | 21.5 µM (inactive) | > 100 µM (inactive) | 15.3 µM (inactive) | 39.6 µM (inactive) | 17.1 µM (inactive) | 15.4 µM (inactive) | – | > 100 µM (inactive) | 13.9 µM (inactive) | 16 µM (inactive) | 20.5 µM (inactive) | 29.2 µM (inactive) | 11.5 µM (inactive) | 22.4 µM (inactive) | 13.2 µM (inactive) | 22.1 µM (inactive) | 32.3 µM (inactive) | 97.5 µM (inactive) |
| CC1(C)COC(c2ccc(C(=O)c3ccc(Cl)cc3)cc2)=N1 | > 100 µM (inactive) | 28.6 µM (inactive) | 92.7 µM (inactive) | > 100 µM (inactive) | – | > 100 µM (inactive) | > 100 µM (inactive) | > 100 µM (inactive) | 7.23 µM (inactive) | > 100 µM (inactive) | > 100 µM (inactive) | 43.5 µM (inactive) | > 100 µM (inactive) | > 100 µM (inactive) | 79.6 µM (inactive) | > 100 µM (inactive) | > 100 µM (inactive) | 98.2 µM (inactive) | 10.7 µM (inactive) | > 100 µM (inactive) |
